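The compound was tested at five concentrations on cells cultured in 96-well plates, with a 48-hour exposure period. At the TGI there is no net growth.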
What was measured:
Test in all cases: NCI-60 cell line screen, 48 h
786-0 renal = system: 786-0 renal
A498 renal = system: A498 renal
A549 NSCLC = system: A549 NSCLC
ACHN renal = system: ACHN renal
BT-549 breast = system: BT-549 breast
CAKI-1 renal = system: CAKI-1 renal
CCRF-CEM leukemia = system: CCRF-CEM leukemia
COLO 205 colon = system: COLO 205 colon
DU-145 prostate = system: DU-145 prostate
EKVX NSCLC = system: EKVX NSCLC
HCC-2998 colon = system: HCC-2998 colon
HCT-116 colon = system: HCT-116 colon
HCT-15 colon = system: HCT-15 colon
HL-60(TB) leukemia = system: HL-60(TB) leukemia
HOP-62 NSCLC = system: HOP-62 NSCLC
HOP-92 NSCLC = system: HOP-92 NSCLC
HS 578T breast = system: HS 578T breast
HT29 colon = system: HT29 colon
IGROV1 ovarian = system: IGROV1 ovarian
K-562 leukemia = system: K-562 leukemia
KM12 colon = system: KM12 colon
LOX IMVI melanoma = system: LOX IMVI melanoma
M14 melanoma = system: M14 melanoma
MALME-3M melanoma = system: MALME-3M melanoma
MCF7 breast = system: MCF7 breast
MDA-MB-231 breast = system: MDA-MB-231 breast
MDA-MB-435 = system: MDA-MB-435
MDA-N = system: MDA-N
MOLT-4 leukemia = system: MOLT-4 leukemia
NCI-H226 lung = system: NCI-H226 lung
NCI-H23 lung = system: NCI-H23 lung
NCI-H460 lung = system: NCI-H460 lung
NCI-H522 lung = system: NCI-H522 lung
NCI/ADR-RES ovarian = system: NCI/ADR-RES ovarian
OVCAR-3 ovarian = system: OVCAR-3 ovarian
OVCAR-4 ovarian = system: OVCAR-4 ovarian
OVCAR-5 ovarian = system: OVCAR-5 ovarian
OVCAR-8 ovarian = system: OVCAR-8 ovarian
PC-3 prostate = system: PC-3 prostate
RPMI-8226 leukemia = system: RPMI-8226 leukemia
RXF 393 renal = system: RXF 393 renal
SF-268 CNS = system: SF-268 CNS
SF-295 CNS = system: SF-295 CNS
SF-539 CNS = system: SF-539 CNS
SK-MEL-2 melanoma = system: SK-MEL-2 melanoma
SK-MEL-28 melanoma = system: SK-MEL-28 melanoma
SK-MEL-5 melanoma = system: SK-MEL-5 melanoma
SK-OV-3 ovarian = system: SK-OV-3 ovarian
SN12C renal = system: SN12C renal
SNB-19 CNS = system: SNB-19 CNS
SNB-75 CNS = system: SNB-75 CNS
SR leukemia = system: SR leukemia
SW-620 colon = system: SW-620 colon
T-47D breast = system: T-47D breast
TK-10 renal = system: TK-10 renal
U251 CNS = system: U251 CNS
UACC-257 melanoma = system: UACC-257 melanoma
UACC-62 melanoma = system: UACC-62 melanoma
UO-31 renal = system: UO-31 renal
DLD-1 colon = system: DLD-1 colon
DMS 114 small cell lung = system: DMS 114 small cell lung
DMS 273 small cell lung = system: DMS 273 small cell lung
HOP-18 NSCLC = system: HOP-18 NSCLC
LXFL 529 NSCLC = system: LXFL 529 NSCLC
M19-MEL melanoma = system: M19-MEL melanoma
SNB-78 CNS = system: SNB-78 CNS

For N#Cc1cccc(C2ON=C(c3ccc([N+](=O)[O-])cc3)N2C23CC4CC(CC(C4)C2)C3)c1 (configuration not stated), the TGI (786-0 renal) was greater than 100 µM, the TGI (A498 renal) was greater than 100 µM and the TGI (A549 NSCLC) was greater than 100 µM. For the same compound, the TGI (ACHN renal) was greater than 100 µM, the TGI (BT-549 breast) was greater than 100 µM and the TGI (CAKI-1 renal) was greater than 100 µM. It also gave a TGI (CCRF-CEM leukemia) greater than 100 µM, a TGI (COLO 205 colon) greater than 100 µM and a TGI (DU-145 prostate) greater than 100 µM. It also gave a TGI (EKVX NSCLC) greater than 100 µM, a TGI (HCC-2998 colon) greater than 100 µM and a TGI (HCT-116 colon) greater than 100 µM. The TGI (HCT-15 colon) was greater than 100 µM, the TGI (HL-60(TB) leukemia) was greater than 100 µM and the TGI (HOP-62 NSCLC) was greater than 100 µM. For the same compound, the TGI (HOP-92 NSCLC) was greater than 100 µM, the TGI (HS 578T breast) was greater than 100 µM and the TGI (HT29 colon) was greater than 100 µM. It also gave a TGI (IGROV1 ovarian) greater than 100 µM, a TGI (K-562 leukemia) greater than 100 µM and a TGI (KM12 colon) greater than 100 µM. The TGI (LOX IMVI melanoma) was greater than 100 µM, the TGI (M14 melanoma) was greater than 100 µM and the TGI (MALME-3M melanoma) was greater than 100 µM. It also gave a TGI (MCF7 breast) greater than 100 µM, a TGI (MDA-MB-231 breast) greater than 100 µM and a TGI (MDA-MB-435) greater than 100 µM. It also gave a TGI (MDA-N) greater than 100 µM, a TGI (MOLT-4 leukemia) greater than 100 µM and a TGI (NCI-H226 lung) greater than 100 µM. It also gave a TGI (NCI-H23 lung) greater than 100 µM, a TGI (NCI-H460 lung) greater than 100 µM and a TGI (NCI-H522 lung) greater than 100 µM. It also gave a TGI (NCI/ADR-RES ovarian) greater than 100 µM, a TGI (OVCAR-3 ovarian) greater than 100 µM and a TGI (OVCAR-4 ovarian) of 76.8 µM. The TGI (OVCAR-5 ovarian) was 31 µM, the TGI (OVCAR-8 ovarian) was greater than 100 µM and the TGI (PC-3 prostate) was greater than 100 µM. The TGI (RPMI-8226 leukemia) was greater than 100 µM, the TGI (RXF 393 renal) was greater than 100 µM and the TGI (SF-268 CNS) was greater than 100 µM. It also gave a TGI (SF-295 CNS) greater than 100 µM, a TGI (SF-539 CNS) greater than 100 µM and a TGI (SK-MEL-2 melanoma) greater than 100 µM. The TGI (SK-MEL-28 melanoma) was greater than 100 µM, the TGI (SK-MEL-5 melanoma) was greater than 100 µM and the TGI (SK-OV-3 ovarian) was greater than 100 µM. It also gave a TGI (SN12C renal) greater than 100 µM, a TGI (SNB-19 CNS) greater than 100 µM and a TGI (SNB-75 CNS) greater than 100 µM. For the same compound, the TGI (SR leukemia) was greater than 100 µM, the TGI (SW-620 colon) was greater than 100 µM and the TGI (T-47D breast) was greater than 100 µM. It also gave a TGI (TK-10 renal) greater than 100 µM, a TGI (U251 CNS) greater than 100 µM and a TGI (UACC-257 melanoma) greater than 100 µM. For the same compound, the TGI (UACC-62 melanoma) was greater than 100 µM and the TGI (UO-31 renal) was greater than 100 µM.
CC(=O)Oc1cc(OC(C)=O)c2c(=O)c3ccccc3n(C)c2c1 showed a TGI (A549 NSCLC) greater than 100 µM, a TGI (ACHN renal) of 65.1 µM and a TGI (DLD-1 colon) of 91.3 µM. The TGI (DMS 114 small cell lung) was 96.5 µM, the TGI (DMS 273 small cell lung) was greater than 100 µM and the TGI (HCT-116 colon) was 74.7 µM. The TGI (HCT-15 colon) was greater than 100 µM, the TGI (HOP-18 NSCLC) was 57.1 µM and the TGI (HT29 colon) was 64.5 µM. For the same compound, the TGI (IGROV1 ovarian) was 68.4 µM, the TGI (KM12 colon) was greater than 100 µM and the TGI (LOX IMVI melanoma) was 28.1 µM. It also gave a TGI (LXFL 529 NSCLC) greater than 100 µM, a TGI (M19-MEL melanoma) of 52.2 µM and a TGI (MALME-3M melanoma) of 48.8 µM. For the same compound, the TGI (MOLT-4 leukemia) was greater than 100 µM, the TGI (NCI-H226 lung) was 40.5 µM and the TGI (NCI-H23 lung) was 77.6 µM. It also gave a TGI (NCI-H460 lung) of 67.5 µM, a TGI (NCI-H522 lung) of 52.8 µM and a TGI (OVCAR-3 ovarian) greater than 100 µM. For the same compound, the TGI (OVCAR-4 ovarian) was greater than 100 µM, the TGI (OVCAR-8 ovarian) was 64.4 µM and the TGI (RXF 393 renal) was 75.2 µM. It also gave a TGI (SF-268 CNS) of 76.5 µM, a TGI (SF-295 CNS) of 44.2 µM and a TGI (SF-539 CNS) of 42.2 µM. For the same compound, the TGI (SK-MEL-2 melanoma) was 97.1 µM, the TGI (SK-MEL-28 melanoma) was 59.9 µM and the TGI (SK-MEL-5 melanoma) was 29.7 µM. The TGI (SK-OV-3 ovarian) was 59.8 µM, the TGI (SN12C renal) was 88.2 µM and the TGI (SNB-19 CNS) was greater than 100 µM. The TGI (SNB-75 CNS) was 76.3 µM, the TGI (SNB-78 CNS) was 84.3 µM and the TGI (TK-10 renal) was greater than 100 µM. For the same compound, the TGI (UACC-257 melanoma) was 84.1 µM, the TGI (UACC-62 melanoma) was greater than 100 µM and the TGI (UO-31 renal) was 53.8 µM.
Work on OC1c2ccccc2[C@@H]2[C@H]1[C@@H](c1ccccc1)C1(Cc3ccccc3C1O)[C@H]2c1ccccc1 (some centres not stated) yielded a TGI (786-0 renal) of 8.28 µM, a TGI (A498 renal) of 23.6 µM and a TGI (A549 NSCLC) of 14.2 µM. For the same compound, the TGI (ACHN renal) was 16.7 µM, the TGI (BT-549 breast) was 28.6 µM and the TGI (CAKI-1 renal) was 22.8 µM. For the same compound, the TGI (CCRF-CEM leukemia) was 12.7 µM, the TGI (COLO 205 colon) was 3.62 µM and the TGI (DU-145 prostate) was 22 µM. The TGI (EKVX NSCLC) was 19.2 µM, the TGI (HCC-2998 colon) was 4.58 µM and the TGI (HCT-116 colon) was 14.5 µM. The TGI (HCT-15 colon) was 15.1 µM, the TGI (HL-60(TB) leukemia) was 4.47 µM and the TGI (HOP-62 NSCLC) was 22.9 µM. It also gave a TGI (HOP-92 NSCLC) of 12.6 µM, a TGI (HS 578T breast) of 25.1 µM and a TGI (HT29 colon) of 6.87 µM. The TGI (IGROV1 ovarian) was 16.6 µM, the TGI (K-562 leukemia) was 10.7 µM and the TGI (KM12 colon) was 8.25 µM. For the same compound, the TGI (LOX IMVI melanoma) was 7.04 µM, the TGI (M14 melanoma) was 17.1 µM and the TGI (MALME-3M melanoma) was 17.9 µM. It also gave a TGI (MCF7 breast) of 4.7 µM, a TGI (MDA-MB-231 breast) of 20.3 µM and a TGI (MDA-MB-435) of 7.73 µM. It also gave a TGI (MDA-N) of 13.7 µM, a TGI (MOLT-4 leukemia) of 8.57 µM and a TGI (NCI-H226 lung) of 19.4 µM. For the same compound, the TGI (NCI-H23 lung) was 18.4 µM, the TGI (NCI-H460 lung) was 10.2 µM and the TGI (NCI-H522 lung) was 14.2 µM. The TGI (NCI/ADR-RES ovarian) was 16.6 µM, the TGI (OVCAR-3 ovarian) was 6.27 µM and the TGI (OVCAR-4 ovarian) was 17.4 µM. For the same compound, the TGI (OVCAR-5 ovarian) was 23.2 µM, the TGI (OVCAR-8 ovarian) was 15.3 µM and the TGI (PC-3 prostate) was 8.87 µM. For the same compound, the TGI (RPMI-8226 leukemia) was 9.89 µM, the TGI (RXF 393 renal) was 4.83 µM and the TGI (SF-268 CNS) was 24.1 µM. It also gave a TGI (SF-295 CNS) of 18.9 µM, a TGI (SF-539 CNS) of 26.6 µM and a TGI (SK-MEL-2 melanoma) of 20 µM. The TGI (SK-MEL-28 melanoma) was 22.1 µM, the TGI (SK-MEL-5 melanoma) was 18.2 µM and the TGI (SK-OV-3 ovarian) was 23 µM. The TGI (SN12C renal) was 3.29 µM, the TGI (SNB-19 CNS) was 26.5 µM and the TGI (SNB-75 CNS) was 21.5 µM. The TGI (SR leukemia) was 4.49 µM, the TGI (SW-620 colon) was 17.4 µM and the TGI (T-47D breast) was 22.5 µM. For the same compound, the TGI (TK-10 renal) was 29.7 µM, the TGI (U251 CNS) was 14.1 µM and the TGI (UACC-257 melanoma) was 11.1 µM. It also gave a TGI (UACC-62 melanoma) of 20.6 µM and a TGI (UO-31 renal) of 20.3 µM.
